From paper PMC3432467 (2012)

Biological target: flavodoxin II (apoflavodoxin) (Azotobacter vinelandii, UniProt P00324, C70A)
Assay: FMN fluorescence increase on dilution of holoprotein
Assay type: binding

flavodoxin II (apoflavodoxin), sequence (P00324 2-180 C70A): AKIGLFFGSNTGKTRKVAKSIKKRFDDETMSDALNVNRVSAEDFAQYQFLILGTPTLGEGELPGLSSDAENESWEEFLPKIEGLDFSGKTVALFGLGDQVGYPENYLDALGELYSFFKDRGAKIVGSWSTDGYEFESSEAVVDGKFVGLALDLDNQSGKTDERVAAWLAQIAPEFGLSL

Compound: Cc1cc2nc3c(=O)[nH]c(=O)nc-3n(C[C@H](O)[C@H](O)[C@H](O)COP(=O)(O)O)c2cc1C [flavin mononucleotide]
- Kd: 3.82 pM
